The source of these data is patent US20020094522A1, “Means and methods for monitoring non-nucleoside reverse transcriptase inhibitor antiretroviral therapy and guiding therapeutic decisions in the treatment of HIV/AIDS” (priority 2000, published 2002).

SMILES strings stand for the structures.

In experiment [1] the test system is RTV-300 (patient sample 97-300). Put plainly: Phenotypic susceptibility assay, RTV-300. Format: cell-based, HIV-1. The note with it: RTV-300, patient-derived pool. How it is done:
(§1) Transfections were performed using a calcium-phosphate precipitation procedure. […] Cell lysates were assayed for luciferase activity (FIG. 3).
(§2) The drug inhibition curves are shown in (FIG. 3).
A resistance test vector was constructed as described in Example 1 from a patient sample designated 97-300. This patient had been previously treated with d4T and 3TC (NRTIs), indinavir (a PRI) and efavirenz (an NNRTI). Isolation of viral RNA and RT/PCR was used to generate a patient derived segment that comprised viral sequences coding for all of PR and aa 1-313 of RT. The PDS was inserted into an indicator gene viral vector to generate a resistance test vector designated RTV-300. RTV-300 was then tested in a phenotypic assay to determine accurately and quantitatively the level of susceptibility to a panel of anti-retroviral drugs. […] An IC50 was determined for the resistance test vector pool for each drug tested. The pattern of susceptibility to all of the drug tested was examined and compared to known patterns of susceptibility.

Experiment [2] deals with RTV-644 (patient sample 97-644 / 98-644). Put plainly: Phenotypic susceptibility assay, RTV-644. Format: cell-based, HIV-1. The note with it: for susceptibility/resistance compared to reference virus: RTV-644, Example 5; for fold decrease in susceptibility (IC50): RTV-644, patient-derived pool. From the text: (§3) The resistance test vectors containing a functional luciferase gene cassette were constructed and host cells were transfected with the resistance test vector DNA. The resistant test vectors contained patient-derived reverse transcriptase and protease sequences that were either susceptible or resistant to the antiretroviral agents, such as nucleoside reverse transcriptase inhibitors, non-nucleoside reverse transcriptase inhibitors and protease inhibitors. The resistance test vector viral particles produced by transfecting the resistance test vector DNA into host cells, either in the presence or absence of protease inhibitors, were used to infect target host cells grown either in the absence of NRTI or NNRTI or in the presence of increasing concentrations of the drug. The amount of luciferase activity produced in infected target host cells in the presence of drug was compared to the amount of luciferase produced in infected target host cells in the absence of drug. Drug resistance was measured as the amount of drug required to inhibit by 50% the luciferase activity detected in the absence of drug (inhibitory concentration 50%, IC50). The IC50 values were determined by plotting percent drug inhibition vs. log10 drug concentration.
Host cells were seeded in 10-cm-diameter dishes and were transfected several days after plating with resistance test vector plasmid DNA and the envelope expression vector. Transfections were performed using a calcium-phosphate precipitation procedure. The cell culture media containing the DNA precipitate was replaced with fresh medium, from one to 24 hours, after transfection. Cell culture media containing resistance test vector viral particles was harvested one to four days after transfection and was passed through a […] filter before being stored at −80° C. HIV capsid protein (p24) levels in the harvested cell culture media were determined by an EIA method as described by the manufacturer (SIAC; Frederick, Md.). Before infection, target cells (293 and 293/T) were plated in cell culture media. Control infections were performed using cell culture media from mock transfections (no DNA) or transfections containing the resistance test vector plasmid DNA without the envelope expression plasmid. One to three or more days after infection the media was removed and cell lysis buffer (Promega) was added to each well. […] The inhibitory effect of the drug was determined using the following equation: […]
Isolation of viral RNA and RT/PCR was used to generate a patient derived segment that comprised viral sequences coding for all of PR and amino acids 1-313 of RT. […] An IC50 was determined for each drug tested. […]

Experiment [3] has as its system patient 780 virus (RT K103N, P225H). The experiment can be described thus: Phenotypic susceptibility assay, patient 780. Format: cell-based, HIV. The note with it: patient 780, FIG. 8B.
Excerpt: as §3, with “The amount of luciferase activity produced in infected target host cells in the presence of drug was compared to the amount of luciferase produced in infected target host cells in the absence of drug. Drug resistance was measured as the amount of drug required to inhibit by 50% the luciferase activity detected in the absence of drug (inhibitory concentration 50%, IC50).” left out
(§4) Host cells were seeded in 10-cm-diameter dishes and were transfected several days after plating with resistance test vector plasmid DNA and the envelope expression vector. […] HIV capsid protein (p24) levels in the harvested cell culture media were determined by an EIA method as described by the manufacturer (SIAC; Frederick, Md.). […] The inhibitory effect of the drug was determined using the following equation: […]

Experiment [4] has as its system RTVs containing P236L plus K103N, Y181C or both (K103N+Y181C). Put plainly: Phenotypic susceptibility assay, P236L added to K103N, Y181C or both. In kind it is cell-based, HIV-1. As to conditions: P236L with K103N. How it is done:
as §1, §2
(§5) Resistance test vectors were constructed containing the P236L mutation alone and in combination with other known drug resistance mutations (K103N, Y181C) that are known to modulate the susceptibility of HIV-1 to NNRTIs. […] The P236L mutation was also introduced into a RTV containing mutations at K103N, Y181C or both (K103N+Y181C).

Experiment [5] has as its system RTV-955 (patient sample 98-955). Put plainly: Phenotypic susceptibility assay, RTV-955. Format: cell-based, HIV-1. The note with it: RTV-955, patient-derived pool. How it is done: as §1, §2
A resistance test vector was constructed as described in Example 1 from a patient sample designated 98-955. This patient had been previously treated with nelfinavir (a PRI) Isolation of viral RNA and RT/PCR was used to generate a patient derived segment that comprised viral sequences coding for all of PR and aa 1-313 of RT. The PDS was inserted into an indicator gene viral vector to generate a resistance test vectors designated RTV-955. RTV-955 was then tested in a phenotypic assay to determine accurately and quantitatively the level of susceptibility to a panel of anti-retroviral drugs. […] An IC50 was determined for the resistance test vector pool for each drug tested. The pattern of susceptibility to all of the drugs tested was examined and compared to known patterns of susceptibility.

The test system of experiment [6] is RTV-1058 Clone 10 (L100I, K103N and Y188L). The experiment can be described thus: Phenotypic susceptibility assay, RTV-1058 clone 10. In kind it is cell-based, HIV-1. How it is done:
The resistance test vectors containing a functional luciferase gene cassette were constructed and host cells were transfected with the resistance test vector DNA. The resistant test vectors contained patient-derived reverse transcriptase and protease sequences that were either susceptible or resistant to the antiretroviral agents, such as nucleoside reverse transcriptase inhibitors, non-nucleoside reverse transcriptase inhibitors and protease inhibitors. […] The IC50 values were determined by plotting percent drug inhibition vs. log10 drug concentration.
as §4
A resistance test vector was constructed as described in Example 1 from a patient sample designated 98-1058. […] An IC50 was determined for the resistance test vector pool for each drug tested.

The subject of experiment [7] is RTVs containing P225H plus K103N, Y181C or both (K103N+Y181C). The experiment can be described thus: Phenotypic susceptibility assay, P225H added to K103N, Y181C or both. Format: cell-based, HIV-1. The note with it: P225H with K103N. On the procedure:
as §1, §2
Resistance test vectors were constructed containing the P225H mutation alone and in combination with other known drug resistance mutations (K103N, Y181C) known to modulate the HIV susceptibility to NNRTIs. […] (Sakar G and Sommar SS (1994) Biotechniques 8(4), 404-407). […] The pattern of phenotypic susceptibility to the NNRTI, delavirdine in the P225H-RTV was altered as compared to wild type.

The test system of experiment [8] is P236L-RTV (HIV reverse transcriptase P236L). Put plainly: Phenotypic susceptibility assay, P236L-RTV. In kind it is cell-based, HIV-1. As to conditions: P236L mutation alone. On the procedure: as §1, §2, §5

Take `CC(C)Nc1cccnc1N1CCN(C(=O)c2cc3cc(NS(C)(=O)=O)ccc3[nH]2)CC1` [delavirdine]: the entries for the “fold decrease in susceptibility (IC50)” value in experiment [1], in experiment [2] and in experiment [5] were 25 fold, 2.5 fold and 4 fold, respectively. In addition, in experiment [2], the “susceptibility/resistance compared to reference virus” value was “little or no resistance to delavirdine”. The “susceptibility/resistance profile” value in experiment [3] is “reduced susceptibility”. Also, in experiment [4], the “change in susceptibility compared to the corresponding RTV lacking P236L” value was “less susceptible (more resistant) to delavirdine if the P236L mutation was present”. In addition, the “fold loss of susceptibility (IC50)” value in experiment [6] was “greater than 250 fold”. For the same compound, the “change in susceptibility compared to the corresponding RTV lacking P225H” value in experiment [7] is “more susceptible to inhibition by delavirdine if the P225H mutation was present”. In addition, the “change in susceptibility compared to wild type reference RTV” value in experiment [8] is recorded as “less susceptible to delavirdine than a wild type reference RTV”.
Consider `Cc1ccnc2c1NC(=O)c1cccnc1N2C1CC1` [nevirapine], for which the “fold decrease in susceptibility (IC50)” value is recorded as “greater than 800 fold” in experiment [1], 600 fold in experiment [2] and 530 fold in experiment [5]. In experiment [2], the “susceptibility/resistance compared to reference virus” value was “resistant to nevirapine”. The “susceptibility/resistance profile” value in experiment [3] is “reduced susceptibility”. The “change in susceptibility compared to the corresponding RTV lacking P236L” value in experiment [4] was “did not significantly alter nevirapine susceptibility”. In addition, in experiment [6], the “fold loss of susceptibility (IC50)” value is on record as “greater than 800 fold”. Besides, the “change in susceptibility compared to the corresponding RTV lacking P225H” value in experiment [7] is “did not significantly change nevirapine susceptibility”. In addition, the “change in susceptibility compared to wild type reference RTV” value in experiment [8] is “no significant change in nevirapine susceptibility”.
